Key:
basophils = assay: Comparison of BTK inhibitors by BAT (CD63 and CD203c); format: cell-based, human; details: concentration of 1 μM; 2 hours; blood from a healthy donor
Procedure: The BAT assay using the Flow Cast Basophil Activation Kit (Buhlmann Diagnostics; Catalog #B-CCR-STCON) was then conducted following manufacturer instructions by (1) stimulating the blood with anti-FcεR stimulation control in stimulation buffer with IL-3 and staining cells for CCR3 and CD63 for 15 minutes at 37° C., (2) lysing red blood cells and fixing cells with Lysing Reagent at room temperature for 10 minutes, (3) washing cells with Wash Buffer, and (4) acquiring data on a flow cytometer. Activated basophils were defined as CCR3+, low side scatter and CD63+. Percent of activated basophils was calculated as number of activated basophils over the total number of basophils. A four-parameter logistic regression was applied to determine the EC50 and EC90.
Blood samples were gently rocked at room temperature for 2 hours. […] Activated basophils were also defined as CCR3+, low side scatter and CD203c+.

mast cells = assay: Phosphorylation and degranulation markers in antigen-stimulated mast cells grown with chronic SCF (FIG. 21); format: cell-based; details: 1 μM, antigen 15 minutes
Procedure: Histamine release, CD63 expression, CD203c expression, pBTK (Y223) levels, pP38 (T180/Y182) levels, pPLCg1 (S1248) levels, pERK (T202/Y204) levels, and pS6 (S235/236) levels are shown. Mast cells were grown with continuous (chronic) exposure to SCF and then stimulated with antigen (Ag) for 15 minutes, leading to phosphorylation of multiple kinases, including pBTK, pPLCγ1, pP38, pERK, and pS6 ribosome. This stimulation increases degranulation markers, including CD63, CD203c, and histamine release.

[1] = ISM patients, cited from earlier work
[2] = cited from earlier work

In the case of `CC#CC(=O)N1CCC[C@H]1c1nc(-c2ccc(C(=O)Nc3ccccn3)cc2)c2c(N)nccn12` [acalabrutinib, (S)-4-(8-amino-3-(1-(but-2-ynoyl)pyrrolidin-2-yl)imidazo[1,5-a]pyrazin-1-yl)-N-(pyridin-2-yl)benzamide, reference compound], the “effect on basophil activation (CD63+, CD203c+)” value (basophils) is reported as “no effect on basophil activation”.

In the case of `Cn1cc(-c2cc3c(N4CCN(c5ncc([C@@](C)(N)c6ccc(F)cc6)cn5)CC4)ncnn3c2)cn1` [avapritinib], the “phosphorylation and degranulation (activation)” value (mast cells) is given as “only partially inhibits activation”, the “reduction of total symptom score compared to the placebo” value ([1]; 25 mg QD, Week 24, ISM-SAF survey) is given as 5.7 points and the “adverse reactions leading to dose interruptions” value ([1]; 25 mg QD) is given as 5%. The “treated subjects who failed to achieve a mean symptom score reduction of 30%” value ([1]; first 6 months of treatment) was “approximately half” and the “subjects who achieved a 50% symptom score reduction” value ([1]; within the first 6 months of treatment) was “about a third”.

For `Cc1nc(Nc2ncc(C(=O)Nc3c(C)cccc3Cl)s2)cc(N2CCN(CCO)CC2)n1` [dasatinib], the “subjects who discontinued treatment due to toxicity” value ([2]; overall, AdvSM and ISM subjects) is listed as 34% and the “pleural effusion, grade 3 adverse event” value ([2]; patients overall) is listed as 10%.
